Data: PMC6934184, “Selective DNA-PKcs inhibition extends the therapeutic index of localized radiotherapy and chemotherapy” (The Journal of Clinical Investigation, 2019)

Molecular target: T1, SYK (Homo sapiens, UniProt P43405)
T1 construct: purchased Thermo Fisher Scientific (Life Technologies) SelectScreen
Experiment: SelectScreen Z'LYTE
Format: biochemical
How it was run: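 SelectScreen broad panel; activity (Z'LYTE, Adapta) plus binding formats. ATP: Km app for CSF1R Z'LYTE; 10 for CAMK1 Adapta. Readout = % per kinase.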

## CN(C(=O)CN1CCOCC1)c1ccc2sc3c(-c4cccc5c(=O)cc(N6CC7CCC(C6)O7)oc45)cccc3c2c1 [NU5455]
  inhibition at 1 µM: -0.2%
